Assay results taken from patent US10493100B2, “Pharmaceutical composition for preventing or treating brain cancer including crystal polymorph of tetraarsenic hexoxide, and method for preparing same” (CHEMAS CO., LTD., priority 2016, dated 2019).

Assays:
[1] = tested on: human brain glioblastoma cell line U-87MG; experiment: Cell proliferation assay (MTT assay), U-87MG; type: cell-based
Method: (§1) Fetal bovine serum (FBS) and cell culture medium were prepared (Hyclone), and dimethyl sulfoxide (DMSO) and 3-(4,5-dimetyl-thiazol-2yl)-2,5-diphenyltetrazolium bromide (MTT, Amresco LLC, USC) were prepared.
(§2) As human cancer cell lines, human brain glioblastoma cell lines U-87MG and U-118MG were obtained from the Shanghai Cell Bank of Chinese Academy of Sciences. The cells were incubated in Eagle's Minimum Essential Medium (EMEM), supplemented with 10% FBS, 100 U/ml penicillin, and 100 μg/ml streptomycin according to the culture condition, in a humidified incubator with 5% CO2 and 95% air. The medium was exchanged every three days.
(§3) The effects of Example 1 and Comparative Examples 1 to 3 on cell proliferation were assessed using MTT assay. MTT assay is based on the ability of viable cells against MTT to produce insoluble dark blue formazan products. After the cells were suspended in the medium by trypsin treatment and collected, the cells were dispensed at a density of 4×10^3 cells/well in a 96-well culture dish (Costar, Cambridge, Mass., USA). After 24 hours, Example 1 and Comparative Examples 1 to 3 as treatment samples were added, at 0, 0.625, 1.25, 2.5, 5, 10, 20, 40, or 80 μM, to the cells in the media containing 10% FBS, and then the cells were incubated. […] All the crystals were completely dissolved by standing at room temperature for 15 minutes, and the absorbance was measured using a micro-plate reader at a wavelength of 570 nm (A570 nm).
(§4) The absorbance value of the control group treated without the sample was calculated as 100, and the absorbance value of the treatment group treated with the sample, compared with that of the control group, was calibrated, and the percentage of inhibition of cell proliferation was calculated according to the following equation. Percentage (%) of inhibition of cell proliferation=((mean absorbance of control group cells−mean absorbance of treatment group cells)/mean absorbance of control group cells)×100
(§5) All data were expressed as mean±standard error of the mean (mean±SEM). […]

[2] = tested on: human brain glioblastoma cell line U-118MG; experiment: Cell proliferation assay (MTT assay), U-118MG; type: cell-based
Method: as §1, §2, §3, §4, §5

gliomatosis cerebri = experiment: Clinical Test-1: patient; type: in vivo, human
Method: (§6) The following clinical tests were conducted using the composition of Example 1.
From the 10th day after the diagnosis, mobility weakening and trembling symptoms of both arms began to appear and then proceeded rapidly. […] Pre-treatment MRI images of this patient are shown in FIG. 4, and MRI images after two months and three months of radiotherapy together with administration of Example 1 are shown in FIGS. 5 and 6, respectively.

[3] = tested on: glioblastoma in the left parieto-temporal lobe; experiment: Clinical Test-2: patient; type: in vivo, human; conditions: after surgery, radiotherapy and Tremodal
Method: as §6
This patient with symptoms of headache, vomiting, diplopia, and visual field defect was diagnosed with glioblastoma in the left parieto-temporal lobe. On the 3rd day after the diagnosis, tumor removal was conducted by surgery, and the tumor was confirmed as glioblastoma of the WHO grade IV/IV as a result of pathologic diagnosis. Radiotherapy with Tremodal treatment (61.2 Gy/33fx) was performed from the 45th day to the 90th day after the diagnosis. The remaining tumors were still confirmed on MRI images after the radiotherapy and Tremodal treatment. From the 95th day after the diagnosis, 5 mg of Example 1 was administered three times a day for 17 months. […] The pre-treatment MRI images of this patient are shown in FIG. 7, and MRI images after the surgery and radiotherapy are shown in FIG. 8. Respective images after four months, seven months, and ten months of administration of Example 1 are shown in FIGS. 9A, 9B, and 9C, respectively.

[4] = tested on: U-87MG cells labeled with luciferase; experiment: In vivo efficacy test, tumor imaging signal in animal models transplanted with human brain glioblastoma cell line; design: species or system Balb/C female nude mice; conditions: 2.25 mg/kg once daily
Method: (§7) The human brain glioblastoma cell line U-87MG (purchased from ATCC) was incubated in Eagle's Minimum Essential Medium (EMEM) supplemented with 10% FBS, 100 U/ml penicillin, and 100 μg/ml streptomycin in an incubator under conditions of 37° C., 5% CO2, and 95% air. The medium was exchanged every three days.
(§8) The U-87MG cells labeled with luciferase were inoculated into the primary site of the brain in […] Balb/C female nude mice weighing 16-19 g, and the amount of cells inoculated was 5×10^5/5 uL. The animals were subjected to imaging examinations on the 6th day after the inoculation, when the surgical sites of the animals were restored and the tumor cells were slightly grown. The animals were randomly divided into two groups, four animals for each group, according to the imaging results. A test group was administered with a solution containing Example 1 dissolved in physiological saline (0.9% NaCl), and a control group was administered with only physiological saline, which is a solvent used for the test group. The animals of the two groups were administered once daily with physiological saline or 2.25 mg/kg Example 1. The dose was 10 uL/g on the basis of the weight of the animals. During the administration, the weight and health conditions of the animals were continuously monitored, and at the same time, the animals were subjected to image examination.

[5] = Weight measurement in animal models transplanted with human brain glioblastoma cell line; type: in vivo, Balb/C female nude mice
Method: as §7, §8

[6] = compared with Comparative Example 2 or 3 (4:1 or 1:1 mixtures)
[7] = from the 7th day of administration (FIG. 10A)

tetraarsenic hexoxide [Example 1]
percentage of inhibition of brain glioblastoma cell proliferation [1, 6]: higher
percentage of inhibition of brain glioblastoma cell proliferation ([1]; incubation 48 hours (FIG. 2A), compared with Comparative Example 1): higher
percentage of inhibition of brain glioblastoma cell proliferation ([1]; incubation 72 hours (FIG. 2B), compared with Comparative Example 1): higher
percentage of inhibition of brain glioblastoma cell proliferation [2, 6]: higher
percentage of inhibition of brain glioblastoma cell proliferation ([2]; incubation 48 hours (FIG. 3A), compared with Comparative Example 1): higher
percentage of inhibition of brain glioblastoma cell proliferation ([2]; incubation 72 hours (FIG. 3B), compared with Comparative Example 1): higher
mobility weakening and trembling symptoms (gliomatosis cerebri; 15 mg per day from the 17th day after the diagnosis, before radiotherapy): began to improve
symptoms (gliomatosis cerebri; 15 mg per day together with radiotherapy from the 27th to the 75th day after the diagnosis): the symptoms disappeared completely
tumor size on MRI images (gliomatosis cerebri; after three months of radiotherapy together with administration (FIG. 6)): tumors almost disappeared
tumor size on MRI images (gliomatosis cerebri; after two months of radiotherapy together with administration (FIG. 5)): tumor sizes were reduced
sizes of remaining tumors (MRI) ([3]; 5 mg three times a day for 17 months): confirmed to decrease
subjective symptoms ([3]; 5 mg three times a day, from 2 months of administration): no subjective symptom
luminescence signal intensities due to the proliferation and metastasis of tumors ([4]; 7th and 9th days of administration (FIG. 10B), control group vs test group): in the control group were much stronger than those in the test group
tumor signal intensities [4, 7]: significantly light
tumor signals in the spine (tumor metastasis into the spine) [4, 7]: hardly observed in the spine
Body change 9 days after the first administration ([5]; 2.25 mg/kg once daily): -0.8 g
Weight 9 days after the first administration ([5]; 2.25 mg/kg once daily, mean ± SEM, 4 animals): 16.1 ± 0.5 g
weight after 9 days of drug administration (in words) ([5]; 2.25 mg/kg once daily, control group largely reduced): almost unchanged weight
Weight before administration ([5]; test group, mean ± SEM, 4 animals, baseline): 16.9 ± 0.2 g
